In patent US10815230B2, “Casein kinase 1 delta inhibitor” (ELECTROPHORETICS LIMITED, priority 2015, dated 2020):

Legend:
Experiment in all cases: KINOMEscan binding assay
Conditions in all cases: read-out: % Ctrl @ 10000 nM
AAK1 = AAK1 (Homo sapiens, UniProt Q2M2I8)
[1] = target: ABL1 (T315I) non-phosphorylated (Homo sapiens, UniProt P00519, T315I)
ABL1 phosphorylated = ABL1 phosphorylated (Homo sapiens, UniProt P00519)
CAMK1D = CAMK1D (Homo sapiens, UniProt Q8IU85)
CDK2 = CDK2 (Homo sapiens, UniProt P24941)
CDKL1 = CDKL1 (Homo sapiens, UniProt Q00532)
DLK = DLK (Homo sapiens, UniProt Q12852)
DYRK1A = DYRK1A (Homo sapiens, UniProt Q13627)
EGFR E746-A750del = EGFR E746-A750del (Homo sapiens, UniProt P00533, DEL746-750)
EGFR (G719S) = EGFR (G719S) (Homo sapiens, UniProt P00533, G719S)
EPHB1 = EPHB1 (Homo sapiens, UniProt P54762)
FLT3 (R834Q) = FLT3 (R834Q) (Homo sapiens, UniProt P36888, R834Q)
GCN2 (Kin.Dom.2, S808G) = GCN2 (Kin.Dom.2, S808G) (Homo sapiens, UniProt Q9P2K8, S808G)
ICK = ICK (Homo sapiens, UniProt Q9UPZ9)
IKK-epsilon = IKK-epsilon (Homo sapiens, UniProt Q14164)
[2] = target: JAK3 (JH1domain-catalytic) (Homo sapiens, UniProt P52333)
KIT (D816H) = KIT (D816H) (Homo sapiens, UniProt P10721, D816H)
KIT (V559D, T670I) = KIT (V559D, T670I) (Homo sapiens, UniProt P10721, T670I/V559D)
MAP4K5 = target: T1, MAP4K5 (Homo sapiens, UniProt Q9Y4K4)
T1 construct: T7 phage fusion (most assays) or DNA label after HEK293 expression; purchased DiscoveRx (KINOMEscan, LeadHunter Discovery services); host or cells: T7 phage in E. coli (BL21-derived) or HEK293

MARK1 = MARK1 (Homo sapiens, UniProt Q9P0L2)
MLK1 = MLK1 (Homo sapiens, UniProt P80192)
NEK7 = NEK7 (Homo sapiens, UniProt Q8TDX7)
NLK = NLK (Homo sapiens, UniProt Q9UBE8)
PAK3 = PAK3 (Homo sapiens, UniProt O75914)
PCTK1 = PCTK1 (Homo sapiens, UniProt Q00536)
PCTK3 = PCTK3 (Homo sapiens, UniProt Q07002)
PDGFRB = PDGFRB (Homo sapiens, UniProt P09619)
PIK3CA (E545K) = PIK3CA (E545K) (Homo sapiens, UniProt P42336, E545K)
PKN1 = PKN1 (Homo sapiens, UniProt Q16512)
PKN2 = PKN2 (Homo sapiens, UniProt Q16513)
PRKX = PRKX (Homo sapiens, UniProt P51817)
RIOK2 = RIOK2 (Homo sapiens, UniProt Q9BVS4)
S6K1 = S6K1 (Homo sapiens, UniProt P23443)
SNARK = SNARK (Homo sapiens, UniProt Q9H093)
SRPK2 = SRPK2 (Homo sapiens, UniProt P78362)
TGFBR1 = TGFBR1 (Homo sapiens, UniProt P36897)
TGFBR2 = TGFBR2 (Homo sapiens, UniProt P37173)
[3] = target: T2, TYK2 JH2domain-pseudokinase (Homo sapiens, UniProt P29597)
T2 construct: JH2domain-pseudokinase; purchased DiscoveRx (KINOMEscan, LeadHunter Discovery services)

WEE1 = WEE1 (Homo sapiens, UniProt P30291)
YSK4 = target: T3, YSK4 (Homo sapiens, UniProt Q56UN5)
T3 construct: purchased DiscoveRx (KINOMEscan, LeadHunter Discovery services)

EPHB1, sequence (P54762 18-984): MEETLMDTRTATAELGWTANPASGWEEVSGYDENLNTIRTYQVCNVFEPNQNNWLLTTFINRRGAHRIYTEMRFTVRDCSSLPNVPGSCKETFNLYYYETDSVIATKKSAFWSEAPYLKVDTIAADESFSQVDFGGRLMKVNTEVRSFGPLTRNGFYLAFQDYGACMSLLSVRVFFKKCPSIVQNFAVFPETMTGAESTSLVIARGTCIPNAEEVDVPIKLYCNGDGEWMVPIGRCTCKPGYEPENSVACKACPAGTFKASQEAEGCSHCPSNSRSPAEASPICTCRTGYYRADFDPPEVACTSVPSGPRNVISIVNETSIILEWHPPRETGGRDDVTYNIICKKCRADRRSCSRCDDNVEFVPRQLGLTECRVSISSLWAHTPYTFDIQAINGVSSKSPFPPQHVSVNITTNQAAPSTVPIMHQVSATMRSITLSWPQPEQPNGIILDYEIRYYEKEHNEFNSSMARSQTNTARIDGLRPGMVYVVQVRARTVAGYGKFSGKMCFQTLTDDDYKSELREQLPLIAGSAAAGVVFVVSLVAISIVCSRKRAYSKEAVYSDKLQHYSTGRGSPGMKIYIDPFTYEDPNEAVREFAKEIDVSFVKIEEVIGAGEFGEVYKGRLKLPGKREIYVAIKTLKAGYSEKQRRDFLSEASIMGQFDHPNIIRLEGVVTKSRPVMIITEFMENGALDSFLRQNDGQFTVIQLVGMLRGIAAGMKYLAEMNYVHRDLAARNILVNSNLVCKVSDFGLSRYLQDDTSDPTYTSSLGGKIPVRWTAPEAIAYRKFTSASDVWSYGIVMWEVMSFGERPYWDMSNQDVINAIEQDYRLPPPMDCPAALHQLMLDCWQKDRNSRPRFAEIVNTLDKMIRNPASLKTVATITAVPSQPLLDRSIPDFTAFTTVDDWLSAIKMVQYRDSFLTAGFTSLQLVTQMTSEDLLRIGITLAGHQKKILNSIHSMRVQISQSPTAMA
KIT (V559D, T670I), sequence (P10721 26-976 V559D/T670I): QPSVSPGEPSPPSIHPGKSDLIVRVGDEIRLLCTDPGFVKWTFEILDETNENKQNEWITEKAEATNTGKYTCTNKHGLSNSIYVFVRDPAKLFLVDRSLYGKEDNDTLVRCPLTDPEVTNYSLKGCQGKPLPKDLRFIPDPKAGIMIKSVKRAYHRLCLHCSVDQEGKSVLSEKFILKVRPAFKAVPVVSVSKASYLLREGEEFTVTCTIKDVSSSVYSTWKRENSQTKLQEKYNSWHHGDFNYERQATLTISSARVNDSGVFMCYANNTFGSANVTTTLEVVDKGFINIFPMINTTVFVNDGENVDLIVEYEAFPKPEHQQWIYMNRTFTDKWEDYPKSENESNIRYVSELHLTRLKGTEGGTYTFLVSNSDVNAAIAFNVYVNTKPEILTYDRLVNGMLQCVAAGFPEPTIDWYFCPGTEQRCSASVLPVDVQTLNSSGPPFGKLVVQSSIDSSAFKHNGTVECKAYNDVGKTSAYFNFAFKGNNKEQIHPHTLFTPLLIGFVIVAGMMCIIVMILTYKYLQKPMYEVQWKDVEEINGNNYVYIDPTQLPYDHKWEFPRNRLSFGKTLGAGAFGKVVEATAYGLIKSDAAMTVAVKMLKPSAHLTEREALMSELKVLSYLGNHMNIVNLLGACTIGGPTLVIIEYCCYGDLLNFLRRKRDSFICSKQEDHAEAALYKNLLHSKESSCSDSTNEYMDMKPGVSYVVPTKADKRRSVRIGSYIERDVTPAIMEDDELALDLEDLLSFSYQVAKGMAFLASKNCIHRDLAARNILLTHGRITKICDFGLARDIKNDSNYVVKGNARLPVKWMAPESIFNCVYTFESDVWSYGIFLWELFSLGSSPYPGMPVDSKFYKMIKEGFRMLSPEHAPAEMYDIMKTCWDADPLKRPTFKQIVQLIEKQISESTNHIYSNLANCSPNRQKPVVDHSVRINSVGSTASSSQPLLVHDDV
NLK, sequence (Q9UBE8 whole entry): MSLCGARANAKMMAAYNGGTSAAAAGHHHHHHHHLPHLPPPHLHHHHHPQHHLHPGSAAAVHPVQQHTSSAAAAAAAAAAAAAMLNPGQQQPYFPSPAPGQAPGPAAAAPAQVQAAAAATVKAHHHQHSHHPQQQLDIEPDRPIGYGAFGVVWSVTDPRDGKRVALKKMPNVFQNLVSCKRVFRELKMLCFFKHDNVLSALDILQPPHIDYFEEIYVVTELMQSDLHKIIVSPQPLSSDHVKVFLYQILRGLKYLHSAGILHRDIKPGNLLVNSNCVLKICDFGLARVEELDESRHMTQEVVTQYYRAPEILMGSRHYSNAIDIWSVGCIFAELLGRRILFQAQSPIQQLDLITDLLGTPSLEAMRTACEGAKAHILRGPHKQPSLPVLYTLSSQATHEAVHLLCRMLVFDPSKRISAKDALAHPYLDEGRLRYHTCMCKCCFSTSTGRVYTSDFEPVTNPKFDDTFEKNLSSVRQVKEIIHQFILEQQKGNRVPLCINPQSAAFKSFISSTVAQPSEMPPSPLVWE
T1 sequence (Q9Y4K4 whole entry, the tested form may be a part): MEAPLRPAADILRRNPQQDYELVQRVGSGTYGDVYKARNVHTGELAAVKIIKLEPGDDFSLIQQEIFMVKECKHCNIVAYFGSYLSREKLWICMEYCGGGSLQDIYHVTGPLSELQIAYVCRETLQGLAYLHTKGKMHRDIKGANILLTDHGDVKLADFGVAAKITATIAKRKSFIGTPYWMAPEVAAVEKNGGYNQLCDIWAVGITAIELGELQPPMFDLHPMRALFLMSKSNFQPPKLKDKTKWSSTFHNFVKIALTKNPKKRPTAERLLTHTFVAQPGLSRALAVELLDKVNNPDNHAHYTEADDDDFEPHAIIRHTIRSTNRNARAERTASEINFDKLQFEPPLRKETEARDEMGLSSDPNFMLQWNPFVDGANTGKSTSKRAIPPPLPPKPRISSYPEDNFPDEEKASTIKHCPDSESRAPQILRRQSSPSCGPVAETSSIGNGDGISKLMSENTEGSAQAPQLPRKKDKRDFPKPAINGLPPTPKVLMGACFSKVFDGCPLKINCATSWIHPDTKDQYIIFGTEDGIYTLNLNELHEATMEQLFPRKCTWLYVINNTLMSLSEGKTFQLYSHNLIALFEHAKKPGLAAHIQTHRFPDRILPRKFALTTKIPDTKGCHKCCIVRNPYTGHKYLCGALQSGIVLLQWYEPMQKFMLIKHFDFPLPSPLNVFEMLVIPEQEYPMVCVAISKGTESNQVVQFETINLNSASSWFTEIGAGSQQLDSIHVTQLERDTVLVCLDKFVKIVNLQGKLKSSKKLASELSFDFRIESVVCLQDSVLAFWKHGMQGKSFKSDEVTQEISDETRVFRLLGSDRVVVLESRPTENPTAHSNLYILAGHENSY
CDKL1, sequence (Q00532 whole entry): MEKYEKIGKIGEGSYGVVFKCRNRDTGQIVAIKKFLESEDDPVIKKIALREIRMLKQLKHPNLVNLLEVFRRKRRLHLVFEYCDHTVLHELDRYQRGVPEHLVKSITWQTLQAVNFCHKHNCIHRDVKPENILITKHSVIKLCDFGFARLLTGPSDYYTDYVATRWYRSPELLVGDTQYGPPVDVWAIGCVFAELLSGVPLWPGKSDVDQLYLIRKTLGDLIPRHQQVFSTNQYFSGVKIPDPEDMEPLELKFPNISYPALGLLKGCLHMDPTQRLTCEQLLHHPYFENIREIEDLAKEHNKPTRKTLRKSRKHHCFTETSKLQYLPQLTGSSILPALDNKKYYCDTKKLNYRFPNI
EGFR E746-A750del, sequence (P00533 with tags, fused parts or gaps DEL746-750): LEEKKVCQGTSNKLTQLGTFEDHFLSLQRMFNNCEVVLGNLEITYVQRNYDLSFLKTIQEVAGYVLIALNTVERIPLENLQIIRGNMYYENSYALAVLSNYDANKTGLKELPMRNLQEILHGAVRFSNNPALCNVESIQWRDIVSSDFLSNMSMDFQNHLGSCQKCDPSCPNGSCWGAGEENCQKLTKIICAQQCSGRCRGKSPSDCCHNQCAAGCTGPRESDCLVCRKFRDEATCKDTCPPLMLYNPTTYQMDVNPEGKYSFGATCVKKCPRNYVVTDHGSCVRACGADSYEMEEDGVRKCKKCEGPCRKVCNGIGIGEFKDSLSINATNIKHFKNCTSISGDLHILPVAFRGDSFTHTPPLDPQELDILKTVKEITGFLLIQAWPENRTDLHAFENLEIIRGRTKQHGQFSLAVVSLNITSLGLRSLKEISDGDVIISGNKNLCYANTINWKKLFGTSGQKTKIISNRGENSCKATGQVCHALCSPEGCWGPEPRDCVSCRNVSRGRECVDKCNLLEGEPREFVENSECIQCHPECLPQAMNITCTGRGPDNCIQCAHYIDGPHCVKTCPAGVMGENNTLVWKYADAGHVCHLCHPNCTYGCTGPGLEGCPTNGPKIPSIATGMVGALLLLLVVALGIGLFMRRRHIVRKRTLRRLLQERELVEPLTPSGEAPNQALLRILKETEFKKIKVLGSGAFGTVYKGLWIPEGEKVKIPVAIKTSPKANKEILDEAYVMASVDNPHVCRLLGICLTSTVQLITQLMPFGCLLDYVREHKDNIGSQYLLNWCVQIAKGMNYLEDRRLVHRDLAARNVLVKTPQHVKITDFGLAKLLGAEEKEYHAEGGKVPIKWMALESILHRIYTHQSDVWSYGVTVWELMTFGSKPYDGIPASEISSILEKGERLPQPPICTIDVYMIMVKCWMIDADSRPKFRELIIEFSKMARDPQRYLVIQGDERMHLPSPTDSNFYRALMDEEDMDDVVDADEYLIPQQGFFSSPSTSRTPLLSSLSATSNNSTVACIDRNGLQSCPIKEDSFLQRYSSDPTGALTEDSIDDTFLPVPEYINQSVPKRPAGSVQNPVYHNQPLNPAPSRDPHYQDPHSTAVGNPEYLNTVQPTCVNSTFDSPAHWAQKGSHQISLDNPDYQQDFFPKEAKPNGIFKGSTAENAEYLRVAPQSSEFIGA
KIT (D816H), sequence (P10721 26-976 D816H): as the sequence (P10721 26-976 V559D/T670I) above, with D534V, I645T, D791H counted along it

Work on `Nc1ncc(-c2nc3ccccc3o2)c(-c2ccncc2)n1` [Comparative Compound 324, 5-(1,3-benzoxazol-2-yl)-4-(pyridine-4-yl)pyrimidin-2-amine] yielded a remaining binding at 10 µM (AAK1) of 83%, a remaining binding at 10 µM [1] of 96% and a remaining binding at 10 µM (ABL1 phosphorylated) of 98%. For the same compound, the remaining binding at 10 µM (CAMK1D) was 96%, the remaining binding at 10 µM (CDK2) was 100% and the remaining binding at 10 µM (CDKL1) was 68%. It also gave a remaining binding at 10 µM (DLK) of 91%, a remaining binding at 10 µM (DYRK1A) of 87% and a remaining binding at 10 µM (EGFR E746-A750del) of 80%. For the same compound, the remaining binding at 10 µM (EGFR (G719S)) was 63%, the remaining binding at 10 µM (EPHB1) was 86% and the remaining binding at 10 µM (FLT3 (R834Q)) was 97%. For the same compound, the remaining binding at 10 µM (GCN2 (Kin.Dom.2, S808G)) was 98%, the remaining binding at 10 µM (ICK) was 99% and the remaining binding at 10 µM (IKK-epsilon) was 82%. The remaining binding at 10 µM [2] was 74%, the remaining binding at 10 µM (KIT (D816H)) was 86% and the remaining binding at 10 µM (KIT (V559D, T670I)) was 98%. For the same compound, the remaining binding at 10 µM (MAP4K5) was 88%, the remaining binding at 10 µM (MARK1) was 100% and the remaining binding at 10 µM (MLK1) was 100%. It also gave a remaining binding at 10 µM (NEK7) of 100%, a remaining binding at 10 µM (NLK) of 41% and a remaining binding at 10 µM (PAK3) of 95%. It also gave a remaining binding at 10 µM (PCTK1) of 95%, a remaining binding at 10 µM (PCTK3) of 86% and a remaining binding at 10 µM (PDGFRB) of 90%. It also gave a remaining binding at 10 µM (PIK3CA (E545K)) of 82%, a remaining binding at 10 µM (PKN1) of 100% and a remaining binding at 10 µM (PKN2) of 94%. For the same compound, the remaining binding at 10 µM (PRKX) was 100%, the remaining binding at 10 µM (RIOK2) was 87% and the remaining binding at 10 µM (S6K1) was 90%. It also gave a remaining binding at 10 µM (SNARK) of 98%, a remaining binding at 10 µM (SRPK2) of 100% and a remaining binding at 10 µM (TGFBR1) of 94%. For the same compound, the remaining binding at 10 µM (TGFBR2) was 100%, the remaining binding at 10 µM [3] was 66% and the remaining binding at 10 µM (WEE1) was 100%. The remaining binding at 10 µM (YSK4) was 88%.
For `CNc1c(C(N)=O)c2ccccn2c1C(=O)c1ccc(F)cc1` [Compound A, 2-methyl-amino-3-[(4-fluorophenyl)carbonyl]indolizine-1-carboxamide], the remaining binding at 10 µM (AAK1) was 62%, the remaining binding at 10 µM [1] was 89% and the remaining binding at 10 µM (ABL1 phosphorylated) was 51%. For the same compound, the remaining binding at 10 µM (CAMK1D) was 97%, the remaining binding at 10 µM (CDK2) was 85% and the remaining binding at 10 µM (CDKL1) was 61%. The remaining binding at 10 µM (DLK) was 84%, the remaining binding at 10 µM (DYRK1A) was 74% and the remaining binding at 10 µM (EGFR E746-A750del) was 25%. It also gave a remaining binding at 10 µM (EGFR (G719S)) of 24%, a remaining binding at 10 µM (EPHB1) of 69% and a remaining binding at 10 µM (FLT3 (R834Q)) of 95%. For the same compound, the remaining binding at 10 µM (GCN2 (Kin.Dom.2, S808G)) was 66%, the remaining binding at 10 µM (ICK) was 93% and the remaining binding at 10 µM (IKK-epsilon) was 74%. The remaining binding at 10 µM [2] was 100%, the remaining binding at 10 µM (KIT (D816H)) was 86% and the remaining binding at 10 µM (KIT (V559D, T670I)) was 99%. It also gave a remaining binding at 10 µM (MAP4K5) of 62%, a remaining binding at 10 µM (MARK1) of 99% and a remaining binding at 10 µM (MLK1) of 95%. It also gave a remaining binding at 10 µM (NEK7) of 100%, a remaining binding at 10 µM (NLK) of 35% and a remaining binding at 10 µM (PAK3) of 75%. The remaining binding at 10 µM (PCTK1) was 89%, the remaining binding at 10 µM (PCTK3) was 84% and the remaining binding at 10 µM (PDGFRB) was 45%. The remaining binding at 10 µM (PIK3CA (E545K)) was 77%, the remaining binding at 10 µM (PKN1) was 88% and the remaining binding at 10 µM (PKN2) was 100%. For the same compound, the remaining binding at 10 µM (PRKX) was 100%, the remaining binding at 10 µM (RIOK2) was 66% and the remaining binding at 10 µM (S6K1) was 82%. It also gave a remaining binding at 10 µM (SNARK) of 91%, a remaining binding at 10 µM (SRPK2) of 100% and a remaining binding at 10 µM (TGFBR1) of 92%. The remaining binding at 10 µM (TGFBR2) was 100%, the remaining binding at 10 µM [3] was 86% and the remaining binding at 10 µM (WEE1) was 94%. The remaining binding at 10 µM (YSK4) was 73%.
